How the values were obtained:
[1] = system: co-culture of bovine-brain endothelial cells (BBECs) and newborn rat astrocytes; experiment: In vitro cell model of transport across the BBB; format: in vitro ADME
Experimental: A in vitro cell model of BBB permeability was established using a co-culture of bovine-brain endothelial cells (BBECs) and newborn rat astrocytes. The cells were first cultured in 24-well (Transwell^R) permeable supports with a surface area of 0.33 cm^2 and a pore size of 0.4 µm (Corning), the upper surface of which was coated with collagen type IV and fibronectin. The inserts were then placed upside down in a large petri dish, and 40 µL of a suspension (containing approximately 45,000 astrocytes) was placed on the bottom of each filter. The petri dish was incubated at 37°C for 1 h, and 40 µL of fresh DMEM+S was added to the bottom of each filter every 15 min. The inserts were then transferred back to the plate and incubated at 37°C in 5% CO2 for 3 d. Then, 2 h before seeding the BBECs, the medium was replaced by DMEM+S supplemented with 125 µg/mL heparin and 2 h later, the cells were seeded onto the inserts (45,000 cells per filter). The plate was incubated at 37°C in 5% CO2 for 3 more days, after which the medium was replaced by DMEM+S supplemented with cyclic adenosine monophosphate (cAMP) and RO-20-1724, and kept at 37°C in 5% CO2. On day 8 of the co-culture, the transendothelial electrical resistance (TEER) was measured to determine whether the system was ready for transport studies. To validate the maturity of the model, permeability assays with lucifer yellow (LY) were performed in parallel as a marker of the integrity of the in vitro barrier. During the permeability assay, the samples were co-incubated with LY (20 µM) to assess the integrity of the cellular monolayer during the assay.

[2] = system: Wistar rats, transient MCAO model of focal brain ischemia; experiment: Transient focal ischemia (MCAO), infarct volume by TTC staining; format: in vivo, rat; conditions: 30 mg/kg i.p. twice daily from 30 min after onset of ischemia, 3 days reperfusion; compared with vehicle
Experimental: Male Wistar rats (270-300 g; Harlan) were subjected to transient focal ischemia for 90 min by producing right middle cerebral artery occlusion (MCAO) as described previously, followed by reperfusion for 3 days and MTA treatment (30 mg/kg, intraperitoneally –i.p.- twice daily) starting 30 min after the onset of ischemia (n = 5 in each experimental group). Cerebral blood flow was monitored transcranially with a laser Doppler flowmeter (Perimed) and the infarct volume was assessed by 2,3,5-triphenyltetrazolium chloride (TTC) staining. Transient forebrain ischemia was induced as described elsewhere, by occluding the vertebral and common carotid arteries (4VO) for 10 min, followed by reperfusion for 7 days and MTA treatment (as above) starting 30 min after the onset of ischemia (n = 5 in vehicle group; n = 6 in the […]). The effectiveness of the treatment was assessed by using fluoro-Jade C staining to measure the levels of degenerated neurons in the CA1 region of the hippocampal formation.

Substance: 5′-deoxy-5′-methylthioadenosine [MTA]
- Pe x 10^−6 (cm/s) [1]: 4.5 x 10^−6 cm/s
- effective permeability coefficient (Pe) [1]: 4.5 ×10⁻⁶ cm/s
- volume of the infarct area [2]: did not show any reduction

— paper PMC3944389, “Differential Neuroprotective Effects of 5′-Deoxy-5′-Methylthioadenosine” (PLoS ONE, 2014)
